Data on one compound can be found in article PMC5416783, “Inhibition of homologous phosphorolytic ribonucleases by citrate may represent an evolutionarily conserved communicative link between RNA degradation and central metabolism” (Nucleic Acids Research, 2017).

Molecules are shown by their SMILES.

Holding throughout (experiment): end-point exoribonuclease gel assay, […]'-FAM-A20 RNA
Type in all cases: biochemical

The target in test [1] is T1, E. coli PNPase (EcPNPase) (Escherichia coli, UniProt P05055).
T1 construct: gene pnp; pET-Duet1_EcPNPase expressed in E. coli BL21(DE3)pLysS; homotrimer
T1 sequence (P05055 1-711): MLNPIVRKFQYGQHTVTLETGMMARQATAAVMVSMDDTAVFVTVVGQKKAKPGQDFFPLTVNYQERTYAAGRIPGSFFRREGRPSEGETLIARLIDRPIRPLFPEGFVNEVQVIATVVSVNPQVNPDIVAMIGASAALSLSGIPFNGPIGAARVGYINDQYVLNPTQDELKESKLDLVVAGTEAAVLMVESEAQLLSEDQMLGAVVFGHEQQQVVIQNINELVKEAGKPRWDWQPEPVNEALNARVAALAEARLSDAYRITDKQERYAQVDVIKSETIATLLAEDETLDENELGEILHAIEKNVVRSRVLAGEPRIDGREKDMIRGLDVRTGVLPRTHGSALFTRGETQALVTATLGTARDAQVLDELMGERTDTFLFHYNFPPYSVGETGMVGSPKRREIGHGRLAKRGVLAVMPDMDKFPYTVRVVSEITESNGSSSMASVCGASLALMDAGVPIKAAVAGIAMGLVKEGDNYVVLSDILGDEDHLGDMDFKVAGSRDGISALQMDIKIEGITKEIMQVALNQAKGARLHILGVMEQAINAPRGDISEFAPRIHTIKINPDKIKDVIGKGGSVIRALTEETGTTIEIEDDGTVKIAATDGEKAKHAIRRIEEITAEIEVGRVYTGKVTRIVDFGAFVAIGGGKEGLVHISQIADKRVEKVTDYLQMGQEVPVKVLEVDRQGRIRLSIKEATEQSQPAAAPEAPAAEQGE
The note with it: inhibition; 700 nM FAM-A20 RNA, 240 nM enzyme, 3.75 mM MgCl2, phosphate, pH 8, 37 °C, 10 min; control without citrate 2.2 ± 0.4 %.

Test [2] has as its target T2, S. solfataricus Exosome (SsoExosome) (Saccharolobus solfataricus, UniProt Q9UXC0+Q9UXC2).
T2 construct: gene rrp41; N-terminal hexahistidine Rrp4 co-expressed with untagged Rrp41 and Rrp42 in E. coli BL21(DE3)pLysS; codon-optimised; trimer of Rrp41/Rrp42 dimers with Rrp4 cap; with Exosome complex component Rrp4
T2 sequence (Q9UXC2 1-248): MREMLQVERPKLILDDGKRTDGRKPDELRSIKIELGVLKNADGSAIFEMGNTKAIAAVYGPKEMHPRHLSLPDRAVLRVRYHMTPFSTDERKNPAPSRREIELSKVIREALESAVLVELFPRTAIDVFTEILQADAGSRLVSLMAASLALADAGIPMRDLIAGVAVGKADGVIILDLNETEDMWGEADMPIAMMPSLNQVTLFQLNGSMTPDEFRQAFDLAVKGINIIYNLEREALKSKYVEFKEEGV
T2 sequence (Q9UXC0 1-275): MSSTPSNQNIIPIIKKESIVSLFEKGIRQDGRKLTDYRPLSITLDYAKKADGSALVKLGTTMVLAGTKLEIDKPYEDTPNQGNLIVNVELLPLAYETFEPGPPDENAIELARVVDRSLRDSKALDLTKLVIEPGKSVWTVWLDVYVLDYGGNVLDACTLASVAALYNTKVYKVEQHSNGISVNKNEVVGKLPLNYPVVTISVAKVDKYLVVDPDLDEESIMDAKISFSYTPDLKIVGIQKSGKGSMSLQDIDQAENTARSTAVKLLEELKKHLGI
T2 sequence (Q9UXC4 1-249 partner): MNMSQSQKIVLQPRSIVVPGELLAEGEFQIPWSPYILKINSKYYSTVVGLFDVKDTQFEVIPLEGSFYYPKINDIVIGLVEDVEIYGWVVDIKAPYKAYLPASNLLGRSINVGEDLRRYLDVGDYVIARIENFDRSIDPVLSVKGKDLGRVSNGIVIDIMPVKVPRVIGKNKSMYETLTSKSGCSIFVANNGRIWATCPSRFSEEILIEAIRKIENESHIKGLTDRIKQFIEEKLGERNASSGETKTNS
The settings on record: inhibition; 700 nM FAM-A20 RNA, 240 nM enzyme, 3.75 mM MgCl2, phosphate, pH 8, 37 °C, 10 min; control without citrate 4.0 ± 0.5 %.

Test [3] has as its target T3, Synechocystis sp. PNPase (SspPNPase) (Synechocystis sp. PCC 6803, UniProt P72659).
T3 construct: gene pnp; recombinant, commercial (Sigma)
T3 sequence (P72659 1-718): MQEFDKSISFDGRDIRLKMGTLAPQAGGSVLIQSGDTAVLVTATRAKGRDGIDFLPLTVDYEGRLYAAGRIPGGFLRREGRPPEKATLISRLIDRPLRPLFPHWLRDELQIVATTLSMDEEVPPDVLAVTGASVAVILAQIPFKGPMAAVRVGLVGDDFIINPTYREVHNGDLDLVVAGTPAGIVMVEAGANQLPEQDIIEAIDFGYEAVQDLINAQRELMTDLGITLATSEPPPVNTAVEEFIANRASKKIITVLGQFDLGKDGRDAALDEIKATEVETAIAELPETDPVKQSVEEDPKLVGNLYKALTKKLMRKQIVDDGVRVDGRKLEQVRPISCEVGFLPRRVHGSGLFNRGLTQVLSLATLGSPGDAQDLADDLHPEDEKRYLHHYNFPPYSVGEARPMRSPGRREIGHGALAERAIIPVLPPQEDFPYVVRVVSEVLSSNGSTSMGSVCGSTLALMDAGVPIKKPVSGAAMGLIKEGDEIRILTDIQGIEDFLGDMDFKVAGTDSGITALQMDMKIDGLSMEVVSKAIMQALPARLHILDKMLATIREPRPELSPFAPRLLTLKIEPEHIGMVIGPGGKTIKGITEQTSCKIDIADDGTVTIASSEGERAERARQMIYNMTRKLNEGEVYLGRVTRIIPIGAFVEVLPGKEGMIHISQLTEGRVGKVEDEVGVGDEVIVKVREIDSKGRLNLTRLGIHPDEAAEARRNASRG
The settings on record: inhibition; 700 nM FAM-A20 RNA, 240 nM enzyme, 3.75 mM MgCl2, phosphate, pH 8, 37 °C, 30 min; control without citrate 2.2 ± 0.2 %.

Test [4] deals with T4, H. sapiens PNPase (hPNPase) (Homo sapiens, UniProt Q8TCS8).
T4 construct: gene PNPT1; N-terminal hexahistidine tag (pET-28b), codon-optimised, expressed in E. coli BL21(DE3)pLysS; homotrimer
T4 sequence (Q8TCS8 46-783): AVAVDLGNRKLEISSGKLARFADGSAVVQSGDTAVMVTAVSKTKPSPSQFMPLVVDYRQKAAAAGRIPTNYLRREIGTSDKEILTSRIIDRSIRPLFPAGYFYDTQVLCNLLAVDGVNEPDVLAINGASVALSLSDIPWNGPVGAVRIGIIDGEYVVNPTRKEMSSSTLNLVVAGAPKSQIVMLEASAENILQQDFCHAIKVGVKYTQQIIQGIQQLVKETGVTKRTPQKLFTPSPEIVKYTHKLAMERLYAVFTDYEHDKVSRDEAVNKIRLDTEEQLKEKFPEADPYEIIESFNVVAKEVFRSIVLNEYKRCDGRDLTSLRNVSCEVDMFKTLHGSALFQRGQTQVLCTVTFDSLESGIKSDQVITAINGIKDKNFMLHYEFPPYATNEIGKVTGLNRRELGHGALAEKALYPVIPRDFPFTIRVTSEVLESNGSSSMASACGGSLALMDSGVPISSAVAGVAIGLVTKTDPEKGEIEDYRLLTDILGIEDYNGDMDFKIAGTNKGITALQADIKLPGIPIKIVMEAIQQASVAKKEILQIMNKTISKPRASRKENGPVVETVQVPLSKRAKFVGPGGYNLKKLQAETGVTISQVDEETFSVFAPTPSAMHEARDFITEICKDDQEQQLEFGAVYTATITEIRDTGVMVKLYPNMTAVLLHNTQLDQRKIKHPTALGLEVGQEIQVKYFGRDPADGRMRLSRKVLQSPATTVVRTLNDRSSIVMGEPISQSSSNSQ
The settings on record: inhibition; 700 nM FAM-A20 RNA, 240 nM enzyme, 3.75 mM MgCl2, phosphate, pH 8, 37 °C, 60 min; control without citrate 8.4 ± 2.8 %.

`O=C(O)CC(O)(CC(=O)O)C(=O)O` [citrate]: the “Percentage substrate remaining at assay end-point / + citrate” value in test [1] is 5.6 ± 1.5%; in test [2] it was 13.6 ± 0.5%; in test [3] it was 6.9 ± 2.2%; in test [4], 22.8 ± 4.8%.
